Results on 10 compounds are retold here after patent US10301295B2, “Herbicidal compounds” (Syngenta Participations AG, priority 2014, dated 2019).

Common to all, as to format: in vivo
One experiment relates to wheat. Description: Post-emergence herbicidal activity against cereal crops (wheat) +/- safener, crop selectivity. Particulars: 100%=total damage to plant, 0%=no damage; for Post-emergence herbicidal activity against wheat (percentage phytotoxicity), +CQC: 250 g/ha, plus safener cloquintocet-mexyl (CQC) applied at 50 g/ha; for percent phytotoxicity (crop damage) to wheat at 250 g/ha: Triticum aestivum, 360 h, without safener, read-out: Post-emergence herbicidal activity against wheat (percentage phytotoxicity), Wheat - CQC. Summed up: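 Test plants raised in pots in a glasshouse (24/18 °C warm or 20/16 °C cool species day/night, 16 h light, 65% humidity) and treated post-emergence about 12 days after sowing. Visual percentage phytotoxicity scored 15 days after application (0% = no damage, 100% = total damage).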

The subject of the next experiment is Lolium perenne (LOLPE). The experiment is described as follows: Glasshouse assay for herbicidal activity, pre-/post-emergence (percentage phytotoxicity). The settings on record: Lolium perenne, Rate 250 g/ha, 100%=total damage, 0%=no damage. Summed up: (§1)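 Seeds sown in standard soil in pots, grown 1 day (pre-emergence) or ~12 days (post-emergence) before treatment. Glasshouse: warm species 24/18 °C, cool species 20/16 °C day/night, 16 h light, 65% humidity, watered twice daily. Visual phytotoxicity scored 15DAA (post) or 20DAA (pre); 0% none, 100% total damage.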

Experiment [1] deals with Echinochloa crus-galli (ECHCG). The description is as above. The settings on record: Echinochloa crus-galli, Rate 250 g/ha, 100%=total damage, 0%=no damage. Summed up:
as §1

Another experiment deals with Avena fatua (AVEFA). Described as above. Particulars: Avena fatua, Rate 250 g/ha, 100%=total damage, 0%=no damage. Summed up: as §1
Experiment [2] relates to Alopecurus myosuroides (ALOMY). The description is as above. Particulars: Alopecurus myosuroides, Rate 250 g/ha, 100%=total damage, 0%=no damage. Summed up:
as §1

Where [3] appears, read: post-emergence, 360 h, post-emergence, visual assessment 15 DAA, read-out: Post-emergence herbicidal activity (percentage phytotoxicity), LOLPE POST.
The mark [4] stands for this setting: pre-emergence, 480 h, pre-emergence, visual assessment 20 DAA, read-out: Pre-emergence herbicidal activity (percentage phytotoxicity), LOLPE PRE.
Setting [5] is: post-emergence, 360 h, post-emergence, visual assessment 15 DAA, read-out: Post-emergence herbicidal activity (percentage phytotoxicity), ECHCG POST.
[6] abbreviates: pre-emergence, 480 h, pre-emergence, visual assessment 20 DAA, read-out: Pre-emergence herbicidal activity (percentage phytotoxicity), ECHCG PRE.
Setting [7] is: post-emergence, 360 h, post-emergence, visual assessment 15 DAA, read-out: Post-emergence herbicidal activity (percentage phytotoxicity), AVEFA POST.
[8] abbreviates: pre-emergence, 480 h, pre-emergence, visual assessment 20 DAA, read-out: Pre-emergence herbicidal activity (percentage phytotoxicity), AVEFA PRE.
The mark [9] stands for this setting: 360 h, post-emergence, visual assessment 15 DAA, read-out: Post-emergence herbicidal activity (percentage phytotoxicity), ALOMY POST.
[10] abbreviates: 480 h, pre-emergence, visual assessment 20 DAA, read-out: Pre-emergence herbicidal activity (percentage phytotoxicity), ALOMY PRE.

Read-outs that look alike come from different tables or passages of the source.

As to `Cc1cc(C)c(C2C(=O)CC(CCNS(=O)(=O)C(C)C)C2=O)c(C)c1` (stereo not shown) [Compound A77], the “Post-emergence herbicidal activity against wheat (percentage phytotoxicity), +CQC” value in the experiment on wheat came to 10%. Besides, the percent phytotoxicity (crop damage) to wheat at 250 g/ha in the experiment on wheat is 80%. Besides, the pest or weed control at 250 g/ha in the experiment with Lolium perenne (LOLPE) (setting [3]) was 80%; in the experiment with Lolium perenne (LOLPE) (setting [4]), 80%; in experiment [1] (setting [5]), 70%; in experiment [1] (setting [6]), 70%; in the experiment with Avena fatua (AVEFA) (setting [7]), 80%; in the experiment on Avena fatua (AVEFA) (setting [8]), 70%. Further, the pest or weed control at 250 g/ha in experiment [2] (setting [9]) was 80%; in experiment [2] (setting [10]), 100%.

As to `Cc1cc(C)c(C2C(=O)CC(CCNC(=S)Nc3ccccc3)C2=O)c(C)c1` (stereo not shown) [Compound A90, 1-[2-[2,4-dioxo-3-(2,4,6-trimethylphenyl)cyclopentyl]ethyl]-3-phenyl-thiourea], the “Post-emergence herbicidal activity against wheat (percentage phytotoxicity), +CQC” value in the experiment on wheat came to 20%. For the same compound, the percent phytotoxicity (crop damage) to wheat at 250 g/ha in the experiment on wheat amounted to 0%. The pest or weed control at 250 g/ha in the experiment with Lolium perenne (LOLPE) (setting [3]) is 20%; with Lolium perenne (LOLPE) (setting [4]) it was 70%; in experiment [1] (setting [5]), 60%; in experiment [1] (setting [6]), 40%; in the experiment with Avena fatua (AVEFA) (setting [7]) it was 60%; in the experiment with Avena fatua (AVEFA) (setting [8]), 0%. Besides, the figures for the pest or weed control at 250 g/ha in experiment [2] (setting [9]) and in experiment [2] (setting [10]) were 20% and 0%, respectively.

With `Cc1cc(C)c(C2C(=O)CC(CCNC(=O)NC(=O)c3ccc(Cl)cc3)C2=O)c(C)c1` (stereo not shown) [Compound A51], the “Post-emergence herbicidal activity against wheat (percentage phytotoxicity), +CQC” value in the experiment on wheat was 80%. Further, in the experiment on wheat, the percent phytotoxicity (crop damage) to wheat at 250 g/ha is 80%. The pest or weed control at 250 g/ha with Lolium perenne (LOLPE) (setting [3]) came out at 90%; with Lolium perenne (LOLPE) (setting [4]), 60%; in experiment [1] (setting [5]), 90%; in experiment [1] (setting [6]) it was 90%; with Avena fatua (AVEFA) (setting [7]), 80%; in the experiment with Avena fatua (AVEFA) (setting [8]) it was 30%. Besides, the pest or weed control at 250 g/ha in experiment [2] (setting [9]) was 90%; in experiment [2] (setting [10]) it was 70%.

In the case of `Cc1cc(C)c(C2C(=O)CC(CCNC(=O)NC(=O)c3ccc(F)cc3F)C2=O)c(C)c1` (stereo not shown) [Compound A53], the “Post-emergence herbicidal activity against wheat (percentage phytotoxicity), +CQC” value in the experiment on wheat amounted to 80%. Besides, the percent phytotoxicity (crop damage) to wheat at 250 g/ha with wheat was found to be 90%. The pest or weed control at 250 g/ha in the experiment with Lolium perenne (LOLPE) (setting [3]) is 100%; with Lolium perenne (LOLPE) (setting [4]), 90%; in experiment [1] (setting [5]), 100%; in experiment [1] (setting [6]) it was 100%; with Avena fatua (AVEFA) (setting [7]), 100%; with Avena fatua (AVEFA) (setting [8]) it was 70%. In addition, the pest or weed control at 250 g/ha in experiment [2] (setting [9]) was 90%; in experiment [2] (setting [10]), 80%.

For `CC#Cc1cc(C)c(C2C(=O)CC(CCNC(=O)N(C)c3ccccn3)C2=O)c(C)c1.Cl` (stereo not shown) [Compound A22], in the experiment with wheat, the “Post-emergence herbicidal activity against wheat (percentage phytotoxicity), +CQC” value is on record as 30%. The percent phytotoxicity (crop damage) to wheat at 250 g/ha with wheat worked out at 80%. Also, the pest or weed control at 250 g/ha was determined as 90% in the experiment on Lolium perenne (LOLPE) (setting [3]); 100% with Lolium perenne (LOLPE) (setting [4]); 100% in experiment [1] (setting [5]); 100% in experiment [1] (setting [6]); 100% in the experiment with Avena fatua (AVEFA) (setting [7]); 100% in the experiment with Avena fatua (AVEFA) (setting [8]). Besides, the pest or weed control at 250 g/ha is 80% in experiment [2] (setting [9]) and 70% in experiment [2] (setting [10]).

As for `Cc1cc(-n2cc(Cl)cn2)cc(C)c1C1C(=O)CC(CCNC(=O)NOC(C)(C)C)C1=O` (stereo not shown) [Compound A25], the “Post-emergence herbicidal activity against wheat (percentage phytotoxicity), +CQC” value in the experiment with wheat stood at 0%. Also, the percent phytotoxicity (crop damage) to wheat at 250 g/ha in the experiment on wheat is 60%. For the same compound, the pest or weed control at 250 g/ha in the experiment on Lolium perenne (LOLPE) (setting [3]) was 20%; with Lolium perenne (LOLPE) (setting [4]), 30%; in experiment [1] (setting [5]) it was 90%; in experiment [1] (setting [6]) it was 50%; in the experiment on Avena fatua (AVEFA) (setting [7]), 80%; in the experiment with Avena fatua (AVEFA) (setting [8]) it was 0%. In addition, the pest or weed control at 250 g/ha was 70% in experiment [2] (setting [9]) and 30% in experiment [2] (setting [10]).

As for `Cc1cc(C)c(C2C(=O)CC(CCNC(=O)Nc3ccc(Br)cn3)C2=O)c(C)c1.Cl` (stereo not shown) [Compound A4], in the experiment with wheat, the “Post-emergence herbicidal activity against wheat (percentage phytotoxicity), +CQC” value is reported as 50%. For the same compound, the percent phytotoxicity (crop damage) to wheat at 250 g/ha in the experiment on wheat came to 90%. The pest or weed control at 250 g/ha with Lolium perenne (LOLPE) (setting [3]) came out at 100%; in the experiment on Lolium perenne (LOLPE) (setting [4]) it was 80%; in experiment [1] (setting [5]), 90%; in experiment [1] (setting [6]), 60%; in the experiment on Avena fatua (AVEFA) (setting [7]) it was 100%; in the experiment on Avena fatua (AVEFA) (setting [8]), 70%. For the same compound, the pest or weed control at 250 g/ha came out at 90% in experiment [2] (setting [9]) and 80% in experiment [2] (setting [10]).

Take `CC(=NOCc1ccccc1)C(=O)NCCC1CC(=O)C(c2c(C)cc(-n3cc(Cl)cn3)cc2C)C1=O` (stereo not shown) [Compound A41]: in the experiment with wheat, the “Post-emergence herbicidal activity against wheat (percentage phytotoxicity), +CQC” value stood at 20%. In the experiment on wheat, the percent phytotoxicity (crop damage) to wheat at 250 g/ha turned out to be 60%. For the same compound, the pest or weed control at 250 g/ha in the experiment with Lolium perenne (LOLPE) (setting [3]) was determined as 40%; in the experiment on Lolium perenne (LOLPE) (setting [4]), 0%; in experiment [1] (setting [5]), 60%; in experiment [1] (setting [6]) it was 0%; in the experiment on Avena fatua (AVEFA) (setting [7]), 20%; in the experiment on Avena fatua (AVEFA) (setting [8]), 0%. In addition, the pest or weed control at 250 g/ha in experiment [2] (setting [9]) is 60%; in experiment [2] (setting [10]), 0%.

In the case of `Cc1cc(C)c(C2C(=O)CC(CCNC(=O)N(C)c3ccccc3)C2=O)c(C)c1` (stereo not shown) [Compound A8], the “Post-emergence herbicidal activity against wheat (percentage phytotoxicity), +CQC” value with wheat stood at 10%. Further, the percent phytotoxicity (crop damage) to wheat at 250 g/ha with wheat stood at 70%. In addition, the pest or weed control at 250 g/ha with Lolium perenne (LOLPE) (setting [3]) is 90%; with Lolium perenne (LOLPE) (setting [4]), 90%; in experiment [1] (setting [5]), 80%; in experiment [1] (setting [6]), 90%; with Avena fatua (AVEFA) (setting [7]), 90%; with Avena fatua (AVEFA) (setting [8]), 90%. For the same compound, the pest or weed control at 250 g/ha in experiment [2] (setting [9]) stood at 80%; in experiment [2] (setting [10]), 70%.

In the case of `Cc1cc(C)c(C2C(=O)CC(CCNS(=O)(=O)c3ccc(Cl)c(Cl)c3)C2=O)c(C)c1` (stereo not shown) [Compound A78], the “Post-emergence herbicidal activity against wheat (percentage phytotoxicity), +CQC” value with wheat was determined as 0%. Also, the percent phytotoxicity (crop damage) to wheat at 250 g/ha with wheat worked out at 0%. The pest or weed control at 250 g/ha worked out at 60% in the experiment with Lolium perenne (LOLPE) (setting [3]); 70% in the experiment on Lolium perenne (LOLPE) (setting [4]); 30% in experiment [1] (setting [5]); 20% in experiment [1] (setting [6]); 80% in the experiment on Avena fatua (AVEFA) (setting [7]); 0% in the experiment on Avena fatua (AVEFA) (setting [8]). The results for the pest or weed control at 250 g/ha in experiment [2] (setting [9]) and in experiment [2] (setting [10]) were 40% and 60%, respectively.
